Assay results as given in the supplement of paper PMC11061612.

Assays:
Test in all cases: combination Emax (second highest fraction inhibited in the dose matrix, 72 h); higher = more inhibition; extreme values may be limits of the assay
[1] = test system: MKN28 (Gastric Carcinoma)
Summary of the method: (§1)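 Bliss excess equals the observed combination effect minus the expected value EA + EB − EA·EB, where EA and EB are the effects of each agent alone. Combination Emax is the second-highest inhibition within the matrix. Inhibition was scaled from CellTiter-Glo 2.0 luminescence, with 0 set by vehicle wells and 1 by blank wells, after 72 hours of two-drug dosing of cells plated in 1536-well plates.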

[2] = test system: P12-ICHIKAWA (T-Lymphoblastic Leukemia)
Summary of the method: as §1

[3] = test system: KYSE-180 (Esophageal Squamous Cell Carcinoma)
Summary of the method: as §1

[4] = test system: NCI-H1792 (Lung Adenocarcinoma)
Summary of the method: as §1

[5] = test system: K-562 (Chronic Myelogenous Leukemia)
Summary of the method: as §1

[6] = test system: PANC-08-13 (Pancreatic Carcinoma)
Summary of the method: as §1

[7] = test system: COLO-678 (Colorectal Carcinoma)
Summary of the method: as §1

[8] = test system: NCI-H2818 (Mesothelioma)
Summary of the method: as §1

[9] = test system: BFTC-905 (Bladder Carcinoma)
Summary of the method: as §1

[10] = test system: DND-41 (T-Lymphoblastic Leukemia)
Summary of the method: as §1

[11] = test system: HDQ-P1 (Breast Carcinoma)
Summary of the method: as §1

[12] = test system: WIL2-NS (Non-Cancerous)
Summary of the method: as §1

[13] = test system: KM12 (Colorectal Carcinoma)
Summary of the method: as §1

[14] = test system: CHP-212 (Neuroblastoma)
Summary of the method: as §1

[15] = test system: U251 (Low Grade Glioma)
Summary of the method: as §1

[16] = test system: WM-115 (Melanoma)
Summary of the method: as §1

[17] = test system: KCL-22 (Chronic Myelogenous Leukemia)
Summary of the method: as §1

[18] = test system: BL-41 (Burkitt's Lymphoma)
Summary of the method: as §1

[19] = test system: CAMA-1 (Breast Carcinoma)
Summary of the method: as §1

[20] = test system: EVSA-T (Breast Carcinoma)
Summary of the method: as §1

Cc1c2c(nn1C)CSCc1cc(n(C)n1)CSc1cc(c3ccccc3c1)OCCCc1c(C(=O)O)n(C)c3c-2c(Cl)ccc13 [AZD5991] + CC1(C)CCC(CN2CCN(c3ccc(C(=O)NS(=O)(=O)c4ccc(NCC5CCOCC5)c([N+](=O)[O-])c4)c(Oc4cnc5[nH]ccc5c4)c3)CC2)=C(c2ccc(Cl)cc2)C1 [Venetoclax] (first compound max 1 µM, 7x7, partner max 1 µM)
combination Emax [1]: 0.126
combination Emax [2]: 1
combination Emax [3]: 0.922
combination Emax [4]: 0.379
combination Emax [5]: 0.226
combination Emax [6]: 0.116
combination Emax [7]: 0.0393
combination Emax [8]: 0.387
combination Emax [9]: 0.604
combination Emax [10]: 0.418
combination Emax [11]: 0.216
combination Emax [12]: 0.23
combination Emax [13]: 0.173
combination Emax [14]: 0.835
combination Emax [15]: 0.239
combination Emax [16]: 0.59
combination Emax [17]: 0.928
combination Emax [18]: 1
combination Emax [19]: 0.934
combination Emax [20]: 1

NC1(C(=O)N[C@@H](CCO)c2ccc(Cl)cc2)CCN(c2ncnc3[nH]ccc23)CC1 [Capivasertib] + CCN(CCO)CCCOc1ccc2c(Nc3cc(CC(=O)Nc4cccc(F)c4)[nH]n3)ncnc2c1 [AZD2811] (first compound max 10 µM, 7x7, partner max 1 µM)
combination Emax [1]: 0.206
combination Emax [2]: 1
combination Emax [3]: 0.51
combination Emax [4]: 0.34
combination Emax [5]: 0.245
combination Emax [6]: 0.329
combination Emax [7]: 0.222
combination Emax [8]: 0.294
combination Emax [9]: 0.428
combination Emax [10]: 0.224
combination Emax [11]: 0.321
combination Emax [12]: 0.641
combination Emax [13]: 0.77
combination Emax [14]: 0.749
combination Emax [15]: 0.444
combination Emax [16]: 0.583
combination Emax [17]: 0.472
combination Emax [18]: 0.706
combination Emax [19]: 0.768
combination Emax [20]: 0.979

Cc1c2c(nn1C)CSCc1cc(n(C)n1)CSc1cc(c3ccccc3c1)OCCCc1c(C(=O)O)n(C)c3c-2c(Cl)ccc13 [AZD5991] + Cn1cnc2c(F)c(Nc3ccc(Br)cc3Cl)c(C(=O)NOCCO)cc21 [Selumetinib] (first compound max 1 µM, 7x7, partner max 3 µM)
combination Emax [1]: 0.387
combination Emax [2]: 1
combination Emax [3]: 0.848
combination Emax [4]: 0.704
combination Emax [5]: 0.416
combination Emax [6]: 0.208
combination Emax [7]: 0.423
combination Emax [8]: 0.293
combination Emax [9]: 0.751
combination Emax [10]: 0.181
combination Emax [11]: 0.211
combination Emax [12]: 0.236
combination Emax [13]: 0.638
combination Emax [14]: 0.944
combination Emax [15]: 0.274
combination Emax [16]: 0.68
combination Emax [17]: 0.959
combination Emax [18]: 1
combination Emax [19]: 0.509
combination Emax [20]: 1

COc1nnc2ccc(N3CCC(c4ccc(OCCN5CCN(C)C(=O)[C@H]5C)cc4)CC3)nn12 [AZD5153] + CC1(C)CCC(CN2CCN(c3ccc(C(=O)NS(=O)(=O)c4ccc(NCC5CCOCC5)c([N+](=O)[O-])c4)c(Oc4cnc5[nH]ccc5c4)c3)CC2)=C(c2ccc(Cl)cc2)C1 [Venetoclax] (first compound max 1 µM, 7x7, partner max 1 µM)
combination Emax [1]: 0.446
combination Emax [2]: 0.932
combination Emax [3]: 0.293
combination Emax [4]: 0.676
combination Emax [5]: 0.437
combination Emax [6]: 0.625
combination Emax [7]: 0.408
combination Emax [8]: 0.268
combination Emax [9]: 0.633
combination Emax [10]: 0.835
combination Emax [11]: 0.325
combination Emax [12]: 0.807
combination Emax [13]: 0.643
combination Emax [14]: 0.885
combination Emax [15]: 0.449
combination Emax [16]: 0.365
combination Emax [17]: 0.666
combination Emax [18]: 0.87
combination Emax [19]: 0.456
combination Emax [20]: 0.938

CC(=O)c1c(C)c2cnc(Nc3ccc(N4CCNCC4)cn3)nc2n(C2CCCC2)c1=O [Palbociclib] + CC1(C)CCC(CN2CCN(c3ccc(C(=O)NS(=O)(=O)c4ccc(NCC5CCOCC5)c([N+](=O)[O-])c4)c(Oc4cnc5[nH]ccc5c4)c3)CC2)=C(c2ccc(Cl)cc2)C1 [Venetoclax] (first compound max 10 µM, 7x7, partner max 1 µM)
combination Emax [1]: 0.0507
combination Emax [2]: 0.671
combination Emax [3]: 0.188
combination Emax [4]: 0.465
combination Emax [5]: 0.0413
combination Emax [6]: 0.157
combination Emax [7]: 0.222
combination Emax [8]: 0.203
combination Emax [9]: 0.326
combination Emax [10]: 0.45
combination Emax [11]: 0.109
combination Emax [12]: 0.727
combination Emax [13]: 0.683
combination Emax [14]: 0.481
combination Emax [15]: 0.153
combination Emax [16]: 0.0976
combination Emax [17]: 0.513
combination Emax [18]: 0.312
combination Emax [19]: 0.142
combination Emax [20]: 0.209

CN(CCO)CC[C@H](CSc1ccccc1)Nc1ccc(S(=O)(=O)NC(=O)c2ccc(N3CCC([C@@H](O)c4ccccc4-c4ccc(Cl)cc4)CC3)cc2)cc1S(=O)(=O)C(F)(F)F [AZD4320] + Cn1cnc2c(F)c(Nc3ccc(Br)cc3Cl)c(C(=O)NOCCO)cc21 [Selumetinib] (first compound max 1 µM, 7x7, partner max 3 µM)
combination Emax [1]: 0.356
combination Emax [2]: 1
combination Emax [3]: 0.19
combination Emax [4]: 0.369
combination Emax [5]: 0.516
combination Emax [6]: 0.528
combination Emax [7]: 0.604
combination Emax [8]: 0.31
combination Emax [9]: 0.825
combination Emax [10]: 1
combination Emax [11]: 0.771
combination Emax [12]: 0.633
combination Emax [13]: 0.579
combination Emax [14]: 0.925
combination Emax [15]: 0.651
combination Emax [16]: 0.878
combination Emax [17]: 0.557
combination Emax [18]: 0.801
combination Emax [19]: 0.468
combination Emax [20]: 0.506

CN(CCO)CC[C@H](CSc1ccccc1)Nc1ccc(S(=O)(=O)NC(=O)c2ccc(N3CCC([C@@H](O)c4ccccc4-c4ccc(Cl)cc4)CC3)cc2)cc1S(=O)(=O)C(F)(F)F [AZD4320] + C1CN(CCC1(C(=O)N[C@@H](CCO)C2=CC=C(C=C2)Cl)N)C3=NC=NC4=C3C=CN4 [Capivasertib] (first compound max 1 µM, 7x7, partner max 3 µM)
combination Emax [2]: 1
combination Emax [3]: 0.32
combination Emax [4]: 0.0895
combination Emax [5]: 0.129
combination Emax [6]: 0.422
combination Emax [7]: 0.0393
combination Emax [8]: 0.184
combination Emax [9]: 0.0682
combination Emax [10]: 1
combination Emax [11]: 0.584
combination Emax [12]: 0.535
combination Emax [13]: 0.565
combination Emax [14]: 0.176
combination Emax [15]: 0.181
combination Emax [16]: 0.829
combination Emax [17]: 0.35
combination Emax [18]: 0.215
combination Emax [19]: 0.821
combination Emax [20]: 0.924

COc1nnc2ccc(N3CCC(c4ccc(OCCN5CCN(C)C(=O)[C@H]5C)cc4)CC3)nn12 [AZD5153] + Cn1cnc2c(F)c(Nc3ccc(Br)cc3Cl)c(C(=O)NOCCO)cc21 [Selumetinib] (first compound max 1 µM, 7x7, partner max 10 µM)
combination Emax [1]: 0.416
combination Emax [2]: 0.99
combination Emax [3]: 0.401
combination Emax [4]: 0.78
combination Emax [5]: 0.469
combination Emax [6]: 0.805
combination Emax [7]: 0.615
combination Emax [8]: 0.27
combination Emax [9]: 0.873
combination Emax [10]: 0.893
combination Emax [11]: 0.431
combination Emax [12]: 0.881
combination Emax [13]: 0.786
combination Emax [14]: 0.989
combination Emax [15]: 0.592
combination Emax [16]: 0.832
combination Emax [17]: 0.957
combination Emax [18]: 0.863
combination Emax [19]: 0.506
combination Emax [20]: 0.942

CN(C)CCCOc1ccc(-c2ccc3ncc4c(c3c2)n(C2CCOCC2)c(=O)n4C)cn1 [AZD0156] + O=C(c1cc(Cc2n[nH]c(=O)c3ccccc23)ccc1F)N1CCN(C(=O)C2CC2)CC1 [Olaparib] (first compound max 3 µM, partner max 3 µM)
combination Emax [1]: 0.0496
combination Emax [2]: 0.611
combination Emax [3]: 0.233
combination Emax [4]: 0.267
combination Emax [5]: 0.171
combination Emax [6]: 0.241
combination Emax [7]: 0.216
combination Emax [8]: 0.38
combination Emax [9]: 0.544
combination Emax [10]: 0.372
combination Emax [11]: 0.371
combination Emax [12]: 0.6
combination Emax [13]: 0.36
combination Emax [14]: 0.519
combination Emax [15]: 0.294
combination Emax [16]: 0.356
combination Emax [17]: 0.457
combination Emax [18]: 0.366
combination Emax [19]: 0.285
combination Emax [20]: 0.234

COc1nnc2ccc(N3CCC(c4ccc(OCCN5CCN(C)C(=O)[C@H]5C)cc4)CC3)nn12 [AZD5153] + C[C@@H]1COCCN1C2=NC(=NC(=C2)C3(CC3)[S@](=N)(=O)C)C4=C5C=CNC5=NC=C4 [AZD6738] (first compound max 1 µM, 7x7, partner max 10 µM)
combination Emax [1]: 0.51
combination Emax [2]: 1
combination Emax [3]: 0.591
combination Emax [4]: 0.805
combination Emax [5]: 0.821
combination Emax [6]: 0.831
combination Emax [7]: 0.484
combination Emax [8]: 0.281
combination Emax [9]: 0.802
combination Emax [10]: 0.979
combination Emax [11]: 0.571
combination Emax [12]: 0.935
combination Emax [13]: 0.88
combination Emax [14]: 0.967
combination Emax [15]: 0.836
combination Emax [16]: 0.481
combination Emax [17]: 0.978
combination Emax [18]: 1
combination Emax [19]: 0.661
combination Emax [20]: 0.977

CC(=O)c1c(C)c2cnc(Nc3ccc(N4CCNCC4)cn3)nc2n(C2CCCC2)c1=O [Palbociclib] + Cn1cnc2c(F)c(Nc3ccc(Br)cc3Cl)c(C(=O)NOCCO)cc21 [Selumetinib] (first compound max 10 µM, 7x7, partner max 10 µM)
combination Emax [1]: 0.3
combination Emax [2]: 0.77
combination Emax [3]: 0.203
combination Emax [4]: 0.651
combination Emax [5]: 0.237
combination Emax [6]: 0.221
combination Emax [7]: 0.525
combination Emax [8]: 0.208
combination Emax [9]: 0.746
combination Emax [10]: 0.489
combination Emax [11]: 0.289
combination Emax [12]: 0.74
combination Emax [13]: 0.768
combination Emax [14]: 0.979
combination Emax [15]: 0.297
combination Emax [16]: 0.415
combination Emax [17]: 0.569
combination Emax [18]: 0.433
combination Emax [19]: 0.102
combination Emax [20]: 0.287

C[C@@H](c1ccc2nccn2c1)n1nnc2ncc(-c3cnn(C)c3)nc21 [Savolitinib] + CC1(C)CCC(CN2CCN(c3ccc(C(=O)NS(=O)(=O)c4ccc(NCC5CCOCC5)c([N+](=O)[O-])c4)c(Oc4cnc5[nH]ccc5c4)c3)CC2)=C(c2ccc(Cl)cc2)C1 [Venetoclax] (first compound max 1 µM, 7x7, partner max 1 µM)
combination Emax [1]: 0.0564
combination Emax [2]: 0.188
combination Emax [3]: 0.134
combination Emax [4]: 0.108
combination Emax [5]: 0.155
combination Emax [6]: 0.109
combination Emax [7]: 0.146
combination Emax [8]: 0.127
combination Emax [9]: 0.164
combination Emax [10]: 0.233
combination Emax [11]: 0.117
combination Emax [12]: 0.163
combination Emax [13]: 0.058
combination Emax [14]: 0.108
combination Emax [15]: 0.116
combination Emax [16]: 0.199
combination Emax [17]: 0.137
combination Emax [18]: 0.106
combination Emax [19]: 0.17
combination Emax [20]: 0.201
